Data on seven molecules can be found in patent US11109593B2, “Isoxazolin-5-one derivative and herbicide containing same as active ingredient” (HOKKO CHEMICAL INDUSTRY CO., LTD., priority 2017, dated 2021).

Holding throughout (type): in vivo
Test [1] deals with Echinochloa crus-galli. Briefly: Test Example 3: herbicidal effect test by treatment of dry field farming soil (one day after seeding). To be noted: 120 g/10a active ingredient, evaluated 14 days after treatment. The procedure, abridged:
(§1)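 Compound emulsions are sprayed on the soil surface one day after sowing (120 g a.i. per 10 ares) before weeds emerge. Effect is expressed as percent dry-weight reduction versus untreated controls 14 days post-treatment.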

The subject of test [2] is southern crabgrass. The test is described as above. To be noted: 120 g/10a active ingredient, evaluated 14 days after treatment. Put shortly: as §1
Test [3] concerns Chenopodium album. The description is as above. To be noted: 120 g/10a active ingredient, evaluated 14 days after treatment. The procedure, abridged: as §1
Test [4] deals with Amaranthus viridis. Described as above. To be noted: 120 g/10a active ingredient, evaluated 14 days after treatment. Put shortly:
as §1

Test [5] relates to Echinochloa crus-galli. Kind of test: Test Example 4: herbicidal effect test by treatment of leave and stem in dry field farming (seven days after seeding). The settings on record: 120 g/10a active ingredient; emulsion sprayed seven days after seeding; evaluated 14 days after treatment. Put shortly: (§2)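 Twenty seeds per species were mixed into the top 1 cm of alluvial soil in 36 cm^2 pots; emulsions were sprayed seven days after seeding at 100 L per 10 ares (120 g active ingredient per 10 ares). Herbicidal rate (%) = {1 − treated/untreated mean dry weight} × 100, 14 days after treatment, duplicate.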

The subject of test [6] is southern crabgrass. Described as above. The settings on record: 120 g/10a active ingredient; emulsion sprayed seven days after seeding; evaluated 14 days after treatment. The procedure, abridged: as §2
Test [7] has as its system Chenopodium album. Described as above. To be noted: 120 g/10a active ingredient; emulsion sprayed seven days after seeding; evaluated 14 days after treatment. The procedure, abridged: as §2
The test system of test [8] is Amaranthus viridis. Described as above. To be noted: 120 g/10a active ingredient; emulsion sprayed seven days after seeding; evaluated 14 days after treatment. The procedure, abridged: as §2
Test [9] deals with Echinochloa crus-galli. Kind of test: Test Example 2: herbicidal effect test by treatment during growing period in paddy rice cultivation (seven days after seeding). To be noted: 120 g/10a active ingredient, assessed 14 days after treatment, dry weight vs untreated area. Put shortly: (§3)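 Greenhouse flooded-pot test, seeds sown in puddled paddy soil; emulsion applied into water 7 d after seeding, 120 g a.i./10 a. Dry-weight-based herbicidal rate at 14 d, n=2.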

The subject of test [10] is Scirpus juncoides. The description is as above. To be noted: 120 g/10a active ingredient, assessed 14 days after treatment, dry weight vs untreated area. Put shortly:
as §3

Test [11] concerns broad leaf weeds (Lindernia pyxidaria and Monochoria vaginalis). The test is described as above. To be noted: 120 g/10a active ingredient, assessed 14 days after treatment, dry weight vs untreated area. Put shortly:
as §3

Test [12] concerns Echinochloa crus-galli. Kind of test: Test Example 1: herbicidal effect test by treatment of rice paddy soil (immediately after seeding). The settings on record: 120 g/10a active ingredient, dry weight vs untreated area, 14 days after treatment. The procedure, abridged:
(§4)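 Values are herbicidal rates (%) derived from average plant dry weight in treated versus untreated pots 14 days after treatment, run in duplicate. Treatment was a water-diluted emulsion dropped into flooded paddy soil right after sowing, at 120 g active ingredient per 10 ares.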

The subject of test [13] is Scirpus juncoides. The description is as above. To be noted: 120 g/10a active ingredient, dry weight vs untreated area, 14 days after treatment. Put shortly: as §4
The test system of test [14] is broad leaf weeds (Lindernia pyxidaria and Monochoria vaginalis). The description is as above. To be noted: 120 g/10a active ingredient, dry weight vs untreated area, 14 days after treatment. The procedure, abridged:
as §4

Molecules are shown by their SMILES.

As for `C#CCn1oc(=O)c(Cc2ccccc2NS(=O)(=O)C(F)(F)F)c1C` [Compound 1-138], the “herbicidal rate, Echinochloa crus-galli” value in [1] is recorded as 90%. Moreover, the “herbicidal rate, southern crabgrass” value in [2] is listed as 90%. Moreover, in test [3], the “herbicidal rate, Chenopodium album” value turned out to be 0%. Moreover, in [4], the “herbicidal rate, Amaranthus viridis” value is reported as 0%. Moreover, the “herbicidal effect (herbicidal rate), Echinochloa crus-galli” value in test [5] is given as 80%. Besides, the “herbicidal effect (herbicidal rate), southern crabgrass” value (shortened to “herbicidal effect … southern crabgrass”) in [6] came out at 80%. For the same molecule, the “herbicidal effect (herbicidal rate), Chenopodium album” value (from here on “herbicidal effect … Chenopodium album”) in test [7] turned out to be 0%. Moreover, the “herbicidal effect (herbicidal rate), Amaranthus viridis” value (“herbicidal effect … Amaranthus viridis” below) in test [8] was 40%. The “Herbicidal rate (%) Echinochloa crus-galli” value in [9] and in test [12] was 90% each time. The “Herbicidal rate (%) Scirpus juncoides” value in test [10] stood at 80%; in test [13], 90%. In addition, the figures for the “Herbicidal rate (%) Lindernia pyxidaria” value in [11] and in test [14] were 80% and 100%, respectively. In addition, the figures for the “Herbicidal rate (%) Monochoria vaginalis” value in [11] and in test [14] were 80% and 100%, respectively.

As to `CCC(C)Cn1oc(=O)c(Cc2ccccc2N(S(C)(=O)=O)S(=O)(=O)C(F)(F)F)c1C` (stereo not shown) [Compound 1-895], in test [1], the “herbicidal rate, Echinochloa crus-galli” value was 100%. Further, in test [2], the “herbicidal rate, southern crabgrass” value is on record as 100%. Further, the “herbicidal rate, Chenopodium album” value in test [3] came out at 50%. In [4], the “herbicidal rate, Amaranthus viridis” value is on record as 80%. Further, the “herbicidal effect (herbicidal rate), Echinochloa crus-galli” value in test [5] worked out at 80%. Moreover, the “herbicidal effect … southern crabgrass” value in [6] is 80%. The “herbicidal effect … Chenopodium album” value in test [7] was determined as 60%. Moreover, the “herbicidal effect … Amaranthus viridis” value in test [8] is reported as 50%. Moreover, the figures for the “Herbicidal rate (%) Echinochloa crus-galli” value in [9] and in test [12] were 90% and 100%, respectively. The “Herbicidal rate (%) Scirpus juncoides” value in [10] and in test [13] was 90% in each case. Besides, the “Herbicidal rate (%) Lindernia pyxidaria” value is 70% in test [11] and 90% in test [14]. Further, the “Herbicidal rate (%) Monochoria vaginalis” value in test [11] and in test [14] was 80% throughout.

Regarding `CSCCn1oc(=O)c(Cc2ccccc2N(C(=O)C2CC2)S(=O)(=O)C(F)(F)F)c1C` [Compound 1-413], the “herbicidal rate, Echinochloa crus-galli” value in test [1] is reported as 90%. For the same molecule, the “herbicidal rate, southern crabgrass” value in test [2] came out at 90%. Also, the “herbicidal rate, Chenopodium album” value in [3] is 90%. Besides, the “herbicidal rate, Amaranthus viridis” value in test [4] was 90%. Moreover, the “herbicidal effect (herbicidal rate), Echinochloa crus-galli” value in test [5] is given as 90%. Further, the “herbicidal effect … southern crabgrass” value in test [6] is on record as 90%. The “herbicidal effect … Chenopodium album” value in [7] was 40%. In addition, the “herbicidal effect … Amaranthus viridis” value in test [8] came out at 40%. For the same molecule, the “Herbicidal rate (%) Echinochloa crus-galli” value in test [9] and in [12] was 90% throughout. The “Herbicidal rate (%) Scirpus juncoides” value in test [10] and in [13] was 90% each time. For the same molecule, the “Herbicidal rate (%) Lindernia pyxidaria” value in [11] and in test [14] was 90% throughout. Moreover, the “Herbicidal rate (%) Monochoria vaginalis” value in test [11] and in test [14] was 90% each time.

`Cc1c(Cc2ccccc2N(S(=O)(=O)C(F)(F)F)S(=O)(=O)C(F)(F)F)c(=O)on1CCS(C)(=O)=O` [Compound 1-1006]: the “herbicidal rate, Echinochloa crus-galli” value in test [1] was found to be 80%. Also, the “herbicidal rate, southern crabgrass” value in [2] is listed as 60%. Besides, the “herbicidal rate, Chenopodium album” value in test [3] is 60%. Also, the “herbicidal rate, Amaranthus viridis” value in test [4] amounted to 60%. Moreover, the “herbicidal effect (herbicidal rate), Echinochloa crus-galli” value in test [5] amounted to 40%. The “herbicidal effect … southern crabgrass” value in [6] is on record as 40%. The “herbicidal effect … Chenopodium album” value in test [7] was 40%. Moreover, the “herbicidal effect … Amaranthus viridis” value in [8] was 40%. For the same molecule, the figures for the “Herbicidal rate (%) Echinochloa crus-galli” value in test [9] and in [12] were 80% and 70%, respectively. In addition, the “Herbicidal rate (%) Scirpus juncoides” value in test [10] and in test [13] was 90% in each case. Also, the “Herbicidal rate (%) Lindernia pyxidaria” value in [11] is reported as 60%; in [14] it was 70%. In addition, the “Herbicidal rate (%) Monochoria vaginalis” value in test [11] amounted to 80%; in [14] it was 60%.

Consider `Cc1c(Cc2ccccc2N(C(=O)OCc2ccccc2)S(=O)(=O)C(F)(F)F)c(=O)on1C(C)c1ccccc1` (stereo not shown) [Compound 1-796], for which the “herbicidal rate, Echinochloa crus-galli” value in test [1] was 90%. Further, the “herbicidal rate, southern crabgrass” value in test [2] came to 90%. In addition, the “herbicidal rate, Chenopodium album” value in [3] is listed as 90%. Besides, in [4], the “herbicidal rate, Amaranthus viridis” value came out at 90%. Moreover, the “herbicidal effect (herbicidal rate), Echinochloa crus-galli” value in test [5] is 90%. Besides, in [6], the “herbicidal effect … southern crabgrass” value is on record as 90%. For the same molecule, in test [7], the “herbicidal effect … Chenopodium album” value is 40%. Further, the “herbicidal effect … Amaranthus viridis” value in test [8] stood at 40%. In addition, the “Herbicidal rate (%) Echinochloa crus-galli” value in test [9] and in test [12] was 90% throughout. Besides, the “Herbicidal rate (%) Scirpus juncoides” value in [10] and in test [13] was 90% each time. The “Herbicidal rate (%) Lindernia pyxidaria” value in [11] and in test [14] was 90% throughout. In addition, the “Herbicidal rate (%) Monochoria vaginalis” value in test [11] and in test [14] was 90% each time.

Consider `COC(=O)N(c1ccccc1Cc1c(C)n(C(C)c2ccccc2)oc1=O)S(=O)(=O)C(F)(F)F` (stereo not shown) [Compound 1-598], for which, in [1], the “herbicidal rate, Echinochloa crus-galli” value worked out at 90%. Besides, in test [2], the “herbicidal rate, southern crabgrass” value was 90%. Also, the “herbicidal rate, Chenopodium album” value in test [3] came to 90%. Besides, in [4], the “herbicidal rate, Amaranthus viridis” value came to 90%. Moreover, the “herbicidal effect (herbicidal rate), Echinochloa crus-galli” value in test [5] is 90%. Besides, the “herbicidal effect … southern crabgrass” value in test [6] is given as 90%. Besides, the “herbicidal effect … Chenopodium album” value in test [7] is given as 40%. The “herbicidal effect … Amaranthus viridis” value in [8] was determined as 40%. For the same molecule, the “Herbicidal rate (%) Echinochloa crus-galli” value in [9] and in test [12] was 90% throughout. For the same molecule, the “Herbicidal rate (%) Scirpus juncoides” value in test [10] and in [13] was 90% throughout. The “Herbicidal rate (%) Lindernia pyxidaria” value in [11] and in test [14] was 90% in each case. Besides, the “Herbicidal rate (%) Monochoria vaginalis” value in test [11] and in test [14] was 90% throughout.

Turning to `Cc1c(Cc2ccccc2N(C(=O)C(C)C)S(=O)(=O)C(F)(F)F)c(=O)on1C(C)c1ccccc1` (stereo not shown) [Compound 1-337], the “herbicidal rate, Echinochloa crus-galli” value in test [1] is recorded as 90%. Further, the “herbicidal rate, southern crabgrass” value in [2] is 90%. Further, in test [3], the “herbicidal rate, Chenopodium album” value is 90%. Besides, the “herbicidal rate, Amaranthus viridis” value in test [4] is given as 90%. Further, the “herbicidal effect (herbicidal rate), Echinochloa crus-galli” value in test [5] was determined as 90%. Besides, in test [6], the “herbicidal effect … southern crabgrass” value was determined as 90%. Also, the “herbicidal effect … Chenopodium album” value in test [7] is recorded as 40%. The “herbicidal effect … Amaranthus viridis” value in [8] was 40%. The “Herbicidal rate (%) Echinochloa crus-galli” value in [9] and in test [12] was 90% in each case. Besides, the “Herbicidal rate (%) Scirpus juncoides” value in test [10] and in test [13] was 90% throughout. The “Herbicidal rate (%) Lindernia pyxidaria” value in [11] and in test [14] was 90% throughout. The “Herbicidal rate (%) Monochoria vaginalis” value in [11] and in test [14] was 90% each time.
